Here are results for two molecules from patent US7465715B2, “Method for treatment of multiple sclerosis” (Can-Fite Biopharma, Ltd., priority 2003, dated 2008).

For one assay, the system named is multiple sclerosis. To be noted: patients having MS; cited from earlier work.
Another assay has as its target T1, A1 receptor (Rattus norvegicus, UniProt P25099).
T1 sequence (P25099 1-326): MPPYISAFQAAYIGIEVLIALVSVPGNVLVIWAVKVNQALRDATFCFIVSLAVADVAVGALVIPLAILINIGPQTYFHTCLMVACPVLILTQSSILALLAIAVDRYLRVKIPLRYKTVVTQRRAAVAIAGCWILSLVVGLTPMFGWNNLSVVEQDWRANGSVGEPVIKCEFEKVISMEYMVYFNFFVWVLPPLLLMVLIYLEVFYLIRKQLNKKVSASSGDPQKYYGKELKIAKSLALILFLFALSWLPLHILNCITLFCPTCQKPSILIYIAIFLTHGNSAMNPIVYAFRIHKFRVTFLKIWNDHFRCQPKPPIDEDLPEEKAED
To be noted: cited from earlier work.

A further assay relates to EAE. In words: Experimental autoimmune encephalomyelitis (EAE) induced with MBP in Lewis rats, clinical score. It counts as in vivo, female Lewis rats.

Consider `Nc1nc(Cl)nc2c1ncn2[C@H]1C[C@H](O)[C@@H](CO)O1` [CdA, 2-chloro-2′-deoxyadenosine], for which the “effect on the disease condition of MS patients” value in the assay on multiple sclerosis was “markedly ameliorate the disease condition”. For the same molecule, the “functional character at A1 receptors” value at A1 receptor is “putative partial agonist”.
For `CNC(=O)[C@H]1O[C@@H](n2cnc3c(NCc4cccc(I)c4)ncnc32)[C@H](O)[C@@H]1O` [CF101, N^6-(3-iodobenzyl)-adenosine-5′-N-methyluronamide], the “difference in the maximal clinical score between treated and control groups” value in the assay with EAE (10 μg/kg PO BID from day 7, P<0.01, Student's t test) is “significant”. Moreover, the “severity of the disease in the treated group” value with EAE (10 μg/kg PO BID from day 7 after disease induction) is listed as “significantly reduced”. Besides, the “clinical score in comparison to the control group” value in the assay with EAE (10 μg/kg PO BID from day 7 after disease induction, score 0-5) is “remarkably low clinical score”.
